{"source": "patent US20170112857A1", "about": "“Extended Release Aspirin” (New Haven Pharmaceuticals, Inc., priority 2015, published 2017)", "key": {"platelet aggregation [1]": {"system": "platelet aggregation", "assay": "AA-, collagen- and ADP-induced light transmittance aggregometry (LTA)", "format": "in vivo, human", "details": "Visit 2 trough", "protocol": "High platelet reactivity has previously been implicated in incomplete inhibition during therapy with immediate release low-dose aspirin in patients with type II diabetes. The main study consisted of a run-in phase where subjects were administered 81 mg, everyday (“QD”), of immediate release acetylsalicylic acid (“IR ASA”) for 7-28 days. […] During Visits 2 and 5 subjects were subjected to the following tests: (1) platelet aggregation measurements (a) AA induced, (b) collagen induced, and (c) Multiplate®; […] During Visits 3 and 6 subjects were subjected to the following tests: (1) platelet aggregation measurements (a) AA induced, (b) collagen induced, and (c) Multiplate®; […] An increase in platelet aggregation ([…], or […] or […]) by more than 15% with either agonists (i.e., arachidonic acid or collagen) is considered a significant loss of aspirin effect over 24 hours. […] For this study the trough level data are from the following timepoints: (1) for 81 mg-the data at Visit 2; […]"}, "[2]": {"system": "High Sensitive C-Reactive Protein (hs-CRP)", "assay": "High Sensitive C-Reactive Protein (hs-CRP) test", "format": "in vivo, human", "details": "V2 pre-dose, 81 mg IR ASA", "protocol": "Subjects were also measured for high sensitive C-reactive protein (“hs-CRP”) levels at Visit 1, Visit 2, Visit 3 pre-dose, Visit 3 at 24 hours, Visit 6 pre-dose and Visit 6 at 24 hours.\nHigh Sensitive C-Reactive Protein (“hs-CRP”) was measured using a Seimens Immulite 2000® Xpi analyzer (Immulite 2000 is a registered trademark of Siemens Healthcare Diagnostic, Inc.), prior to 162.5 mg ER ASA (Durlaza®) dosing at Visit 2 pre-dose, at Visit 3 pre-dose and Visit 3 at 24-hr post-dose for the 162.5 mg ER ASA (Durlaza®) dose, and at Visit 6 pre-dose and Visit 6 at 24-hr post-dose for the 325 mg ER ASA dose."}, "platelet aggregation [3]": {"system": "platelet aggregation", "details": "75 mg IR ASA; Würtz et al.; cited from earlier work"}, "endothelial function": {"system": "endothelial function", "assay": "Reactive hyperemia index (ENDOPAT pulsatile arterial tonometry)", "format": "in vivo, human", "details": "for RHI < 1.67 (%): share of subjects", "protocol": "Endothelial function was assessed using the ENDOPAT system ([…] Medical, Israel), a pulsatile arterial tonometry-based diagnostic device, at Visit 2, Visit 3, Visit 5, and Visit 6 predose. The reactive hyperemia index (“RHI”), a measure of endothelial function, and the augmentation index (“AI”), a measure of arterial stiffness, were determined. Endothelial dysfunction is defined as RHI<1.67. Normal arterial stiffness is defined as an AI -30% to -10%, increased arterial stiffness as an AI>-10% to 10%, and abnormal arterial stiffness as an AI>10%. The RHI measures vessel pliability which is a surrogate for nitric oxide production. The production of nitric oxide inhibits platelet aggregation. Thus, determining nitric oxide production following Durlaza® dosing is important to understanding its affect on platelet inhibition."}, "TxB2": {"system": "TxB2", "assay": "Urinary TxB2 excretion by GC/MS, basal and bradykinin-stimulated (Example 3)", "format": "in vivo, human", "details": "for Basal urinary TxB2 levels over placebo: 24 hours post-dosing; for Bradykinin-stimulated TxB2 levels over placebo: 4 hours post-dosing", "from_the_text": "[…] This protocol was repeated two additional times. […] Statistical analysis was done using Wilcoxon rank sum test for continuous variables and the Pearson test for categorical variables."}, "platelet aggregation [4]": {"system": "platelet aggregation", "assay": "VerifyNow Aspirin Assay (ARU), turbidimetric optical detection in whole blood", "format": "in vivo, human", "details": "Visit 2 trough", "protocol": "The VerifyNow® is a turbidimetric based optical detection system that measures platelet aggregation in the whole blood and reports the optical signals as aspirin reaction units (“ARU”). The percent change in ARU over 24 hours (“ARU24”) is calculated from 1 hour post dose using the following formulas: ARU12(%)=(([…]16(%)=(([…]1)*100 and ARU24(%)=(([…]1)*100. […] For this study the trough level data are from the following timepoints: (1) for 81 mg-the data at Visit 2; […]"}, "Interleukin-8 (IL-8)": {"system": "Interleukin-8 (IL-8)", "assay": "Bradykinin-stimulated Interleukin-8 serum levels (Example 4)", "format": "in vivo, human", "protocol": "Subjects of Group 1 were randomly administered a placebo, 81 mg IR ASA and 162.5 mg IR ASA. Subjects of Group 2 were randomly administered a placebo, 81 mg ER ASA and 162.5 mg ER ASA (Durlaza®). Each subject was prohibited from taking any aspirin for two weeks prior to being administered the randomly chosen drug daily for 1 week followed by a urine collection 24 hours after dosing. This protocol was repeated two additional times. For each urine collection TxB2 and 2, 3-dinor-6-keto-PGF1α (“prostacyclin”) levels were measured using gas chromatography-mass spectrometry (“GC/MS”). Statistical analysis was done using Wilcoxon rank sum test for continuous variables and the Pearson test for categorical variables.\nInterleukin-8 (“IL-8”) serum levels (and Interleukin-6 levels, not shown) were measured both prior to and after administration of 0, 81 or 162.5 mg of either IR ASA or ER ASA."}, "[5]": {"details": "81 mg IR, subjects compared with Visit 6 (sub-study)"}, "[6]": {"details": "HPT Group, Visit 5, 81 mg IR ASA"}}, "data": [{"smiles": "CC(=O)Oc1ccccc1C(=O)O", "note": "[IR ASA, acetylsalicylic acid]", "values": [{"measurement": "LTA (%) 2 μg/mL Collagen (Final)", "setting": "platelet aggregation [1]; 81 mg IR QD, main study", "value": "54 ± 25", "unit": "%"}, {"measurement": "LTA (%) 2 μg/mL Collagen (Max)", "setting": "platelet aggregation [1]; 81 mg IR QD, main study", "value": "57 ± 24", "unit": "%"}, {"measurement": "LTA (%) 4 μg/mL Collagen (Final)", "setting": "platelet aggregation [1]; 81 mg IR QD, main study", "value": "65 ± 20", "unit": "%"}, {"measurement": "LTA (%) 4 μg/mL Collagen (Max)", "setting": "platelet aggregation [1]; 81 mg IR QD, main study", "value": "66 ± 21", "unit": "%"}, {"measurement": "LTA (%) 5 μM ADP (Final)", "setting": "platelet aggregation [1]; 81 mg IR QD, main study", "value": "50 ± 17", "unit": "%"}, {"measurement": "LTA (%) 5 μM ADP (Max)", "setting": "platelet aggregation [1]; 81 mg IR QD, main study", "value": "59 ± 14", "unit": "%"}, {"measurement": "LTA (%) 1 mM AA (Max)", "setting": "platelet aggregation [1]; 81 mg IR QD, main study", "value": "5 ± 12", "unit": "%"}, {"measurement": "LTA (%) 2 mM AA (Final), first line so labelled (r8)", "setting": "platelet aggregation [1]; 81 mg IR QD, main study", "value": "5 ± 12", "unit": "%"}, {"measurement": "LTA (%) 2 mM AA (Final), second line (r10)", "setting": "platelet aggregation [1]; 81 mg IR QD, main study", "value": "6 ± 13", "unit": "%"}, {"measurement": "LTA (%) 2 mM AA (Max)", "setting": "platelet aggregation [1]; 81 mg IR QD, main study", "value": "7 ± 14", "unit": "%"}, {"measurement": "LTA (%) 2 μg/mL Collagen (Final)", "setting": "platelet aggregation [1]; [5]", "value": "67 ± 12", "unit": "%"}, {"measurement": "LTA (%) 2 μg/mL Collagen (Max)", "setting": "platelet aggregation [1]; [5]", "value": "68 ± 11", "unit": "%"}, {"measurement": "LTA (%) 4 μg/mL Collagen (Final)", "setting": "platelet aggregation [1]; [5]", "value": "71 ± 13", "unit": "%"}, {"measurement": "LTA (%) 4 μg/mL Collagen (Max)", "setting": "platelet aggregation [1]; [5]", "value": "73 ± 12", "unit": "%"}, {"measurement": "LTA (%) 5 μM ADP (Final)", "setting": "platelet aggregation [1]; [5]", "value": "52 ± 14", "unit": "%"}, {"measurement": "LTA (%) 5 μM ADP (Max)", "setting": "platelet aggregation [1]; [5]", "value": "61 ± 10", "unit": "%"}, {"measurement": "LTA (%) 1 mM AA (Max)", "setting": "platelet aggregation [1]; [5]", "value": "4 ± 2", "unit": "%"}, {"measurement": "LTA (%) 2 mM AA (Final), first line so labelled (r8)", "setting": "platelet aggregation [1]; [5]", "value": "3 ± 2", "unit": "%"}, {"measurement": "LTA (%) 2 mM AA (Final), second line (r10)", "setting": "platelet aggregation [1]; [5]", "value": "3 ± 2", "unit": "%"}, {"measurement": "LTA (%) 2 mM AA (Max)", "setting": "platelet aggregation [1]; [5]", "value": "4 ± 2", "unit": "%"}, {"measurement": "hs-CRP, Maximum", "setting": "[2]", "value": 57.4, "unit": "mg/L"}, {"measurement": "hs-CRP, Mean", "setting": "[2]", "value": 9.62, "unit": "mg/L"}, {"measurement": "hs-CRP, Minimum", "setting": "[2]", "value": 0.44, "unit": "mg/L"}, {"measurement": "AA induced and collagen induced platelet aggregation 24 hours after administration", "setting": "platelet aggregation [3]", "value": "significant increase"}, {"measurement": "Reactive Hyperemia Index, Maximum", "setting": "endothelial function; [6]", "value": 2.27}, {"measurement": "Reactive Hyperemia Index, Mean", "setting": "endothelial function; [6]", "value": 1.74}, {"measurement": "Reactive Hyperemia Index, Minimum", "setting": "endothelial function; [6]", "value": 1.23}, {"measurement": "Reactive Hyperemia Index, Mean", "setting": "endothelial function; HPT Group, Visit 5, 81 mg IR ASA, listed as IR aspirin", "value": "1.7±0.5"}, {"measurement": "RHI < 1.67 (%)", "setting": "endothelial function; [6]", "value": "(44) %"}, {"measurement": "Reactive Hyperemia Index, Maximum", "setting": "endothelial function; Visit 2, 81 mg IR ASA", "value": 3.01}, {"measurement": "Reactive Hyperemia Index, Mean", "setting": "endothelial function; Visit 2, 81 mg IR ASA", "value": 1.94}, {"measurement": "Reactive Hyperemia Index, Minimum", "setting": "endothelial function; Visit 2, 81 mg IR ASA", "value": 0.58}, {"measurement": "Reactive Hyperemia Index, Mean", "setting": "endothelial function; Visit 2, 81 mg IR ASA, listed as IR aspirin", "value": "1.9±0.5"}, {"measurement": "RHI < 1.67 (%)", "setting": "endothelial function; Visit 2, 81 mg IR ASA", "value": "(27.5) %"}, {"measurement": "Basal urinary TxB2 levels over placebo", "setting": "TxB2; 81 mg daily for 1 week", "value": "significantly reduced"}, {"measurement": "dose dependence of the effect on TxB2 synthesis", "setting": "TxB2; 81 mg vs 162.5 mg", "value": "not seen"}, {"measurement": "Bradykinin-stimulated TxB2 levels over placebo", "setting": "TxB2; 81 mg", "value": "significantly reduced"}, {"measurement": "Basal urinary TxB2 levels over placebo", "setting": "TxB2; 162.5 mg daily for 1 week", "value": "significantly reduced"}, {"measurement": "Bradykinin-stimulated TxB2 levels over placebo", "setting": "TxB2; 162.5 mg", "value": "significantly reduced"}, {"measurement": "selectivity for basal TxB2 production over prostacyclin production", "setting": "TxB2; doses of 81 and 162.5 mg/d", "value": "selectively inhibit basal TxB2 production over prostacyclin production"}, {"measurement": "VerifyNow Aspirin Assay (ARU)", "setting": "platelet aggregation [4]; 81 mg IR QD, main study", "value": "477 ± 72", "unit": "ARU"}, {"measurement": "VerifyNow Aspirin Assay (ARU)", "setting": "platelet aggregation [4]; [5]", "value": "475 ± 102", "unit": "ARU"}, {"measurement": "Bradykinin-stimulated IL-8 levels", "setting": "Interleukin-8 (IL-8); 81 mg", "value": "increased"}, {"measurement": "Bradykinin-stimulated IL-8 levels", "setting": "Interleukin-8 (IL-8); 162.5 mg", "value": "increased"}]}]}
